Literature values, collected in patent publication US12365644B2, “Co-crystal of ketoprofen, lysine and gabapentin, pharmaceutical compositions and their medical use” (DOMPÉ FARMACEUTICI S.P.A., priority 2020, dated 2025).

Legend:
[1] = most common side effects

## NCC1(CC(=O)O)CCCCC1 [Gabapentin]
After oral administration
  time to utmost level in plasma: 3 to 4 h
In vivo
  attachment to plasma proteins: does not attach to plasma proteins
Renal excretion
  excretion half-life: roughly 6 hours
[1]
  side effect: ataxia: 13%
  side effect: dizziness: 18%
  side effect: fatigue: 11%
  side effect: somnolence: 20%
